In PubChem BioAssay AID248 (DTP/NCI, 2004):
Inconclusive results and toxic doses are left out.

Tested on: L1210 leukemia ip in BDF1 mice, survival T/C
Assay: NCI In Vivo Anticancer Drug Screen. Data for tumor model L1210 Leukemia (intraperitoneal) in B6D2F1 (BDF1) mice
Conditions: endpoint: mean survival time, higher = longer survival
Outline: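 Each compound was tested against a transplantable tumor grown in mice. The endpoint was survival, with treated animals benchmarked against vehicle controls as a simple ratio.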

[1] = dose: 100.0 mg/kg/injection, schedule: Q01DX001 (ip), vehicle: Klucel (hydroxypropylcellulose) (HPC)
[2] = dose: 100.0 mg/kg/injection, schedule: Q04DX003 (ip), vehicle: Klucel (hydroxypropylcellulose) (HPC)
[3] = dose: 200.0 mg/kg/injection, schedule: Q01DX001 (ip), vehicle: Klucel (hydroxypropylcellulose) (HPC)
[4] = dose: 200.0 mg/kg/injection, schedule: Q04DX003 (ip), vehicle: Klucel (hydroxypropylcellulose) (HPC)
[5] = dose: 400.0 mg/kg/injection, schedule: Q01DX001 (ip), vehicle: Klucel (hydroxypropylcellulose) (HPC)
[6] = dose: 100.0 mg/kg/injection, schedule: Q01DX001 (ip), vehicle: saline
[7] = dose: 75.0 mg/kg/injection, schedule: Q01DX001 (ip), vehicle: saline
[8] = dose: 150.0 mg/kg/injection, schedule: Q01DX001 (ip), vehicle: saline
[9] = dose: 200.0 mg/kg/injection, schedule: Q01DX001 (ip), vehicle: saline
[10] = dose: 400.0 mg/kg/injection, schedule: Q01DX001 (ip), vehicle: saline
[11] = dose: 100.0 mg/kg/injection, schedule: Q04DX003 (ip), vehicle: saline with Tween-80
[12] = dose: 200.0 mg/kg/injection, schedule: Q04DX003 (ip), vehicle: saline with Tween-80
[13] = dose: 400.0 mg/kg/injection, schedule: Q04DX003 (ip), vehicle: saline with Tween-80

## CCC(=C\c1sc2ccc3ccccc3c2[n+]1CC)/C=C1/Sc2ccc3ccccc3c2N1CC
dose: 2.0 mg/kg/injection, schedule: Q01DX001 (ip), vehicle: other
  T/C: 117 % of control
dose: 4.0 mg/kg/injection, schedule: Q01DX001 (ip), vehicle: other
  T/C: 95 % of control
dose: 8.0 mg/kg/injection, schedule: Q01DX001 (ip), vehicle: other
  T/C: 88 % of control

## O=P1(N(CCCl)CCCl)N(Cc2ccccc2)c2ccccc2N1Cc1ccccc1
[1]
  T/C: 102 % of control
[2]
  T/C: 102 % of control
[3]
  T/C: 94 % of control
[4]
  T/C: 98 % of control
[5]
  T/C: 100 % of control
dose: 400.0 mg/kg/injection, schedule: Q04DX003 (ip), vehicle: Klucel (hydroxypropylcellulose) (HPC)
  T/C: 101 % of control

## CCOP(=O)(CCl)NC12CC3CC(CC(C3)C1)C2 (centres undefined)
[2]
  T/C: 96 % of control
[4]
  T/C: 100 % of control

## COc1cc(N(CCCl)CCCl)c(OC)cc1C=Nc1ccc(-c2nc(Cc3ccccc3)sc2C)cc1
dose: 4.0 mg/kg/injection, schedule: Q01DX009 (ip), vehicle: other
  T/C: 117 % of control
dose: 6.0 mg/kg/injection, schedule: Q01DX009 (ip), vehicle: other
  T/C: 123 % of control
dose: 9.0 mg/kg/injection, schedule: Q01DX009 (ip), vehicle: other
  T/C: 120 % of control
dose: 12.5 mg/kg/injection, schedule: Q01DX001 (ip), vehicle: carboxymethylcellulose (CMC)
  T/C: 105 % of control
dose: 25.0 mg/kg/injection, schedule: Q01DX001 (ip), vehicle: carboxymethylcellulose (CMC)
  T/C: 105 % of control
dose: 44.0 mg/kg/injection, schedule: Q01DX001 (ip), vehicle: carboxymethylcellulose (CMC)
  T/C: 110 % of control
dose: 44.0 mg/kg/injection, schedule: Q01DX009 (ip), vehicle: other
  T/C: 160 % of control
dose: 66.0 mg/kg/injection, schedule: Q01DX009 (ip), vehicle: carboxymethylcellulose (CMC)
  T/C: 102 % of control
dose: 100.0 mg/kg/injection, schedule: Q01DX009 (ip), vehicle: carboxymethylcellulose (CMC)
  T/C: 88 % of control
dose: 150.0 mg/kg/injection, schedule: Q01DX001 (ip), vehicle: carboxymethylcellulose (CMC)
  T/C: 153 % of control

## C(=C(/c1ccccc1)N1CCOCC1)/c1ccccc1
dose: 100.0 mg/kg/injection, schedule: Q04DX002 (sc), vehicle: olive oil, sesame oil, peanut oil
  T/C: 118 % of control
dose: 200.0 mg/kg/injection, schedule: Q04DX002 (sc), vehicle: olive oil, sesame oil, peanut oil
  T/C: 99 % of control
dose: 400.0 mg/kg/injection, schedule: Q04DX002 (sc), vehicle: olive oil, sesame oil, peanut oil
  T/C: 99 % of control

## COC(=O)c1cc2ccccc2c2c1OCN(C)C2
dose: 50.0 mg/kg/injection, schedule: Q01DX001 (ip), vehicle: saline
  T/C: 113 % of control
[6]
  T/C: 110 % of control

## CCOC(=O)CC(C)C(Br)(C(=O)OCC)C(=O)OCC (centres undefined)
dose: 25.0 mg/kg/injection, schedule: Q01DX009 (ip), vehicle: water
  T/C: 109 % of control
dose: 50.0 mg/kg/injection, schedule: Q01DX009 (ip), vehicle: water
  T/C: 111 % of control
dose: 100.0 mg/kg/injection, schedule: Q01DX009 (ip), vehicle: water
  T/C: 100 % of control
dose: 200.0 mg/kg/injection, schedule: Q01DX009 (ip), vehicle: water
  T/C: 96 % of control

## O=C1C(=O)c2ccccc2C(O)=C1C(CCc1ccccc1)C1=C(O)c2ccccc2C(=O)C1=O
dose: 75.0 mg/kg/injection, schedule: Q01DX001 (ip), vehicle: carboxymethylcellulose (CMC)
  T/C: 106 % of control
[7]
  T/C: 96 % of control
[8]
  T/C: 94 % of control

## C=C[C+](CCCC)C(=O)[O-]
dose: 25.0 mg/kg/injection, schedule: Q01DX009 (ip), vehicle: saline
  T/C: 95 % of control
dose: 50.0 mg/kg/injection, schedule: Q01DX009 (ip), vehicle: saline
  T/C: 92 % of control
dose: 50.0 mg/kg/injection, schedule: Q04DX003 (ip), vehicle: saline
  T/C: 98 % of control
dose: 100.0 mg/kg/injection, schedule: Q01DX001 (ip), vehicle: acetone
  T/C: 96 % of control
dose: 100.0 mg/kg/injection, schedule: Q01DX009 (ip), vehicle: saline
  T/C: 87 % of control
dose: 100.0 mg/kg/injection, schedule: Q04DX003 (ip), vehicle: saline
  T/C: 93 % of control
dose: 150.0 mg/kg/injection, schedule: Q01DX009 (ip), vehicle: saline
  T/C: 101 % of control
dose: 200.0 mg/kg/injection, schedule: Q01DX001 (ip), vehicle: acetone
  T/C: 95 % of control
dose: 225.0 mg/kg/injection, schedule: Q01DX009 (ip), vehicle: saline
  T/C: 98 % of control

## O=NN(CCBr)C(=O)Nc1ccccc1
dose: 111.0 mg/kg/injection, schedule: Q01DX001 (ip), vehicle: carboxymethylcellulose (CMC)
  T/C: 153 % of control
dose: 222.0 mg/kg/injection, schedule: Q01DX001 (ip), vehicle: carboxymethylcellulose (CMC)
  T/C: 161 % of control
dose: 444.0 mg/kg/injection, schedule: Q01DX001 (ip), vehicle: carboxymethylcellulose (CMC)
  T/C: 124 % of control

## COc1ccc2c(c1OC)C13CCN(C)C(C2)C12C=CC(=O)C3c1c(OC)ccc(OC)c12 (centres undefined)
[6]
  T/C: 95 % of control
[9]
  T/C: 95 % of control
[10]
  T/C: 91 % of control

## CC(=O)Oc1cccc(/C=C/C(=O)O)c1
dose: 100.0 mg/kg/injection, schedule: Q01DX009 (ip), vehicle: saline with Tween-80
  T/C: 91 % of control
[11]
  T/C: 98 % of control
dose: 200.0 mg/kg/injection, schedule: Q01DX009 (ip), vehicle: saline with Tween-80
  T/C: 91 % of control
[12]
  T/C: 102 % of control
dose: 400.0 mg/kg/injection, schedule: Q01DX009 (ip), vehicle: saline with Tween-80
  T/C: 90 % of control
[13]
  T/C: 91 % of control

## O=C(NC(c1ccccc1)C(NC(=O)c1ccccc1)c1ccccc1)c1ccccc1 (centres undefined)
[1]
  T/C: 99 % of control
[3]
  T/C: 99 % of control
[5]
  T/C: 97 % of control

## OC(c1cc(C(F)(F)F)nc2c(F)cccc12)C1CCCCN1 (centres undefined)
[11]
  T/C: 102 % of control
[12]
  T/C: 105 % of control
[13]
  T/C: 96 % of control

## CCN(CC)CCCC(C)n1nnc2cc(Cl)ccc21 (centres undefined)
[6]
  T/C: 97 % of control
[9]
  T/C: 97 % of control

## COc1ccc(CCO)c(OC)c1
dose: 50.0 mg/kg/injection, schedule: Q01DX001 (ip), vehicle: carboxymethylcellulose (CMC)
  T/C: 98 % of control
dose: 100.0 mg/kg/injection, schedule: Q01DX001 (ip), vehicle: carboxymethylcellulose (CMC)
  T/C: 100 % of control
dose: 200.0 mg/kg/injection, schedule: Q01DX001 (ip), vehicle: carboxymethylcellulose (CMC)
  T/C: 96 % of control
dose: 400.0 mg/kg/injection, schedule: Q01DX001 (ip), vehicle: carboxymethylcellulose (CMC)
  T/C: 88 % of control

## CN=Cc1ccccc1O.CN=Cc1ccccc1O.[Cu+2]
dose: 4.68 mg/kg/injection, schedule: Q01DX009 (ip), vehicle: acetone
  T/C: 94 % of control
dose: 9.37 mg/kg/injection, schedule: Q01DX009 (ip), vehicle: acetone
  T/C: 92 % of control
dose: 18.75 mg/kg/injection, schedule: Q01DX009 (ip), vehicle: acetone
  T/C: 90 % of control
dose: 18.75 mg/kg/injection, schedule: Q04DX003 (ip), vehicle: acetone
  T/C: 95 % of control
dose: 37.5 mg/kg/injection, schedule: Q04DX003 (ip), vehicle: acetone
  T/C: 92 % of control
dose: 75.0 mg/kg/injection, schedule: Q01DX001 (ip), vehicle: acetone
  T/C: 92 % of control

## O=[N+]([O-])c1cccc(OCCBr)c1
[6]
  T/C: 101 % of control
[9]
  T/C: 107 % of control
[10]
  T/C: 103 % of control

## CC(=O)/C=C\c1ccc(Cl)cc1
[6]
  T/C: 106 % of control
[9]
  T/C: 98 % of control
[10]
  T/C: 106 % of control

## COC(=O)N1C2CC=C(C)CC21 (centres undefined)
[7]
  T/C: 94 % of control
[8]
  T/C: 104 % of control
dose: 300.0 mg/kg/injection, schedule: Q01DX001 (ip), vehicle: saline
  T/C: 100 % of control

## O=C(NCCCCC(NC(=O)OCc1ccccc1)C(=O)NCCCCCCN(CCCCCCNC(=O)C(CCCCNC(=O)OCc1ccccc1)NC(=O)OCc1ccccc1)C(=O)C(CCCCNC(=O)OCc1ccccc1)NC(=O)OCc1ccccc1)OCc1ccccc1 (centres undefined)
[6]
  T/C: 100 % of control
[9]
  T/C: 94 % of control
[10]
  T/C: 94 % of control
